These results are taken from article PMC3080343, “Small lytic peptides escape the inhibitory effect of heparan sulfate on the surface of cancer cells” (BMC Cancer, 2011).

Read-outs that look alike come from different tables or passages of the source. Where a SMILES comes first, the peptide text is derived from it. [ ]: non-standard residue; d: D form. Dip = N[C@H](C(=O)O)C(c1ccccc1)c1ccccc1; Orn = NCCC[C@H](N)C(=O)O A value given as a limit tells only on which side of the number the result lay.

One data set has as its system HUVEC. Format: cell-based, human. The settings on record: 2 h. How it is done: (§1) The colorimetric MTT viability assay was used to investigate the cytotoxic effect of the peptides. The HT-29, MT-1, Kelly, HUVEC and MRC-5 cells were seeded at a concentration of 2 × 10^5 cells/ml, 1.5 × 10^5 cells/ml, 2 × 10^5 cells/ml, 1 × 10^5 cells/ml and 1 × 10^5 cells/ml in a volume of 0.1 ml in 96-well plates, respectively. CHO-K1 and pgsA-745 cells were seeded at a concentration of 1 × 10^5 cells/ml. The cells were allowed to adhere overnight in complete medium. Before adding different concentrations of the peptides (10-500 μg/ml) to the cells, the culture medium was removed and the cells were washed twice in serum-free culture medium. The non-adherent lymphoma cell lines were seeded at a density of 4 × 10^5 cells/ml using serum-free medium. After incubating the cells with peptides for 30 minutes at 37°C, 0.5 mg MTT-solution was added to each well and the incubation was continued for 2 hours. A volume of 70 μl or 130 μl per well was removed from the non-adherent and adherent cells, respectively. In order to dissolve the formazan crystals, 100 μl of 0.04 M HCl in isopropanol was added and the plates were shaken for 1 hour on a Thermolyne Roto Mix (Dubuque, IA) at room temperature. The optical density was measured on a microplate reader (VERSAmax™ Molecular Devices, CA). Cells treated with 1% Triton X-100 in serum-free medium was used as positive control for 100% cell death, whereas cells in serum free medium were used as negative control. Cell survival was determined from the ΔA590 nm relative to the negative control (100% living cells) and expressed as 50% inhibitory concentration (IC50).

In data set [1] the test system is human red blood cells (RBC). Format: cell-based. The settings on record: red cells of human, 1 h. The method, then:
The hemolytic activity of the peptides was determined using freshly isolated human red blood cells (RBC) as previously described. Briefly, venous blood was collected, transferred to a tube containing heparin (10 U/ml) and centrifuged at 1500 rpm for 10 minutes in order to isolate the red blood cells. The red blood cells were washed three times with PBS (35 mM phosphate buffer with 150 mM NaCl, pH 7.4) by centrifugation at 1500 rpm for 10 minutes, and adjusted to 10% hematocrit with PBS. Peptide solutions were added to yield a final concentration range of the peptide from 1000 μg/ml to 1 μg/ml and a red blood cell concentration of 1%. The resulting suspension was incubated with agitation for 1 hour at 37°C. After incubation the suspension was centrifuged at 4000 rpm for 5 minutes, and the released hemoglobin were monitored by measuring the absorbance of the supernatant at 405 nm on a microplate reader (VERSAmax™ Molecular Devices, CA). PBS and 1% Triton X-100 were used as negative and positive controls, respectively. Peptide concentrations corresponding to 50% hemolysis (EC50) were determined from dose-response curves.

In a further data set the test system is U-266. Format: cell-based. The settings on record: 2 h. How it is done:
as §1

The next data set relates to Ramos. Format: cell-based. The settings on record: 2 h. The method, then: as §1
Another data set has as its system MT-1. Format: cell-based. The settings on record: 2 h. How it is done:
as §1

The next data set concerns lymphoma cells. Format: cell-based. The settings on record: 2 h. The method, then:
as §1

For the next data set, the system named is KMM-1. Format: cell-based. The settings on record: 2 h. How it is done:
as §1

Another data set has as its system KMS-5. Format: cell-based. The settings on record: 2 h. The method, then: as §1
A further data set concerns Kelly. Format: cell-based. The settings on record: for IC50: 2 h. The method, then: as §1
A further data set deals with HT-29. Format: cell-based. The settings on record: 2 h. How it is done:
as §1

The next data set relates to Sudhl-4. Format: cell-based. The settings on record: 2 h. How it is done: as §1
A short description of data set [2]: MTT viability assay, MRC-5 fibroblast-like cells. Format: cell-based. The settings on record: human. The method, then:
as §1
In general terms: Formazan colour is commonly taken as a measure of viable cells.

The subject of a further data set is CHO-K1 cells. Format: cell-based, Chinese hamster. How it is done:
as §1
In order to investigate whether soluble CS or HS would interfere with the cytotoxic activity, the peptides were added to cultures of CHO-K1 cells together with exogenous CS and HS. […] The cytotoxic activity of LTX-318 was not inhibited in the presence of soluble CS or HS (Figure 5c).

For another data set, the system named is CHO-K1. Format: cell-based, Chinese hamster. The settings on record: 2 h. How it is done: as §1
The next data set has as its system pgsA-745. Format: cell-based, Chinese hamster. The settings on record: for IC50: 2 h. The method, then: as §1
Data set [3] deals with human red blood cells (RBC). Also noted: method as in Eliassen et al. [69]. The settings on record: hemolysis; ref Eliassen et al. [69]; cited from earlier work.
The nature of data set [4]: Affinity chromatography on CS-Sepharose. Format: binding. The settings on record: NaCl needed to elute peptide from CS-Sepharose; mean of four experiments. How it is done:
(§2) Two different Sepharose affinity columns were prepared, using HS and CS as ligands. The ligands were mixed with swollen CNBr-activated Sepharose 4B. Non-reactive groups were blocked with 0.1 M Tris-HCl, pH 8.0 and the gel was washed before packing. The peptides were dissolved in 5 mM phosphate-buffer, pH 7.4 at a concentration of 0.5 mg/ml, and 50 μl samples were applied. A gradient of NaCl was used to elute the different peptides from the columns using a GradiFrac from Amersham Pharmacia Biotech (Uppsala, Sweden) at a flow rate of 1.0 ml/min. The peptides were detected using a monitor UV-1 from Amershan Pharmacia Biotech (Uppsala, Sweden).

Data set [5] is described as follows: Affinity chromatography on HS-Sepharose. Format: binding. The settings on record: NaCl needed to elute peptide from HS-Sepharose; mean of four experiments. How it is done: as §2
Data set [6] relates to carcinoma cell lines HT-29 and MT-1. The data set is described as follows: MTT viability assay, carcinoma cell lines HT-29 and MT-1. The settings on record: selectivity versus HUVEC and MRC-5. Format: cell-based. How it is done:
as §1, with “Cells treated with 1% Triton X-100 in serum-free medium was used as positive control for 100% cell death, whereas cells in serum free medium were used as negative control. Cell survival was determined from the ΔA590 nm relative to the negative control (100% living cells) and expressed as 50% inhibitory concentration (IC50).” left out

The next data set relates to tumor. Also noted: method as in PMID 20422410. The settings on record: cited from earlier work.
A further data set has as its system MRC-5. In words: MTT viability assay, MRC-5 fibroblast-like cells. The settings on record: 2 h. Format: cell-based. How it is done:
as §1

Consider `NCCCC[C@H](NC(=O)[C@@H](NC(=O)[C@H](Cc1c[nH]c2ccccc12)NC(=O)[C@H](CCCCN)NC(=O)[C@H](CCCCN)NC(=O)[C@H](Cc1c[nH]c2ccccc12)NC(=O)[C@H](Cc1c[nH]c2ccccc12)NC(=O)[C@H](CCCCN)NC(=O)[C@@H](N)CCCCN)C(c1ccccc1)c1ccccc1)C(N)=O` [LTX-315, KKWWKKWDipK-NH2] (H-KKWWKKW[Dip]K-NH2), for which the half-maximal inhibitory concentration (IC50) with HUVEC is 28 ± 1 µM; in data set [1], over 695 µM; in the data set on U-266 it was 13 ± 1.5 µM; with Ramos it was 10 ± 1.7 µM; in the data set on MT-1, 31 ± 3 µM; in the data set on lymphoma cells it was 10 to 23 µM. For the same compound, the IC50 in the data set on KMM-1 turned out to be 17 ± 2 µM; in the data set with KMS-5, 10 ± 1.5 µM; with Kelly it was 14 ± 1 µM; in the data set on HT-29, 38 ± 3 µM; in the data set with Sudhl-4, 23 ± 2 µM; in the data set with CHO-K1, 22 ± 5 µM. This compound also registered a 50% inhibitory concentration (IC50) with pgsA-745 of 22 ± 3 µM. Also, in [1], the “EC50 (50% hemolysis)” value is over 1000 µg/mL. Further, in data set [2], half-maximal inhibition (IC50 at 30 min) was put at 41 ± 3 µM. For the same compound, in the data set on CHO-K1 cells, the “inhibitory effect of soluble CS and HS on cytotoxic activity” value is recorded as “only a negligible inhibitory effect”. Also, in the data set on CHO-K1 cells, the “inhibitory effect of soluble HS on cytotoxic activity compared to CS” value is on record as “much higher inhibitory effect”.
As for `CC[C@H](C)[C@@H]1NC(=O)[C@H](CO)NC(=O)[C@@H]2CCCN2C(=O)[C@H](C)NC(=O)CNC(=O)[C@H](CC(C)C)NC(=O)[C@H](CCCCN)NC(=O)[C@H](CCCCN)NC(=O)[C@H](CCSC)NC(=O)[C@H](CCCNC(=N)N)NC(=O)[C@H](Cc2c[nH]c3ccccc23)NC(=O)[C@H](CCC(N)=O)NC(=O)[C@H](Cc2c[nH]c3ccccc23)NC(=O)[C@H](CCCNC(=N)N)NC(=O)[C@H](CCCNC(=N)N)NC(=O)[C@@H](NC(=O)[C@H](CCCCN)NC(=O)[C@@H](N)Cc2ccccc2)CSSC[C@@H](C(=O)N[C@H](C(=O)N[C@@H](CCCNC(=N)N)C(=O)N[C@@H](CCCNC(=N)N)C(=O)N[C@@H](C)C(=O)N[C@@H](Cc2ccccc2)C(=O)O)C(C)C)NC(=O)[C@H]([C@@H](C)O)NC1=O` [LfcinB, bovine lactoferricin, reference compound], the IC50 in data set [3] was over 500 µM. In addition, the “Elution concentration from CS” value in [4] is listed as 130 ± 9 mM NaCl. Also, the IC50 at 30 min in [2] (MTT, 30 min incubation, serum-free, read-out: MRC-5 IC50) was over 160 µM. Besides, in [5], the “Elution concentration from HS” value was determined as 417 ± 4 mM NaCl.
Consider `NCCCC[C@H](NC(=O)[C@H](Cc1c[nH]c2ccccc12)NC(=O)[C@H](CCCCN)NC(=O)[C@H](CCCCN)NC(=O)[C@@H](NC(=O)[C@H](Cc1c[nH]c2ccccc12)NC(=O)[C@H](CCCCN)NC(=O)[C@H](CCCCN)NC(=O)[C@@H](N)Cc1c[nH]c2ccccc12)C(c1ccccc1)c1ccccc1)C(N)=O` [LTX-302, WKKWDipKKWK-NH2] (H-WKKW[Dip]KKWK-NH2; N-terminus assumed), for which the IC50 in the data set with HUVEC was 123 ± 9 µM; in [1], over 695 µM; with U-266 it was 36 ± 6 µM; with Ramos, 30 ± 2 µM; in the data set with MT-1, 73 ± 2 µM; in the data set with lymphoma cells, 31 to 46 µM. Also, the concentration for half-maximal inhibition (IC50) was 40 ± 6 µM in the data set with KMM-1; 31 µM in the data set on KMS-5; 28 µM in the data set with Kelly; 75 ± 5 µM in the data set with HT-29; 46 ± 6 µM in the data set with Sudhl-4; 42 ± 7 µM in the data set on CHO-K1. This compound had an IC50 with pgsA-745 of 54 ± 2 µM. The “Elution concentration from CS” value in [4] was 187 ± 13 mM NaCl. Further, the “fold higher activity against neuroblastoma cell line in comparison to endothelial and fibroblast cells” value in the data set on Kelly (selectivity versus HUVEC and MRC-5) is ~ 4.5 fold. Besides, the IC50 at 30 min in data set [2] stood at 126 ± 11 µM. Further, the “inhibitory effect of soluble CS and HS on cytotoxic activity” value with CHO-K1 cells is “only a negligible inhibitory effect”. Moreover, in the data set on CHO-K1 cells, the “inhibitory effect of soluble HS on cytotoxic activity compared to CS” value was “much higher inhibitory effect”. Besides, the “Elution concentration from HS” value in data set [5] turned out to be 330 ± 9 mM NaCl. The “fold higher activity against carcinoma cell lines in comparison to endothelial and fibroblast cells” value in [6] is ~ 2 fold. In the data set with tumor, the “tumor response after intratumoral injection” value is on record as “complete regression of the tumor”. Also, the “Ratio (IC50) pgsA-745/CHO-K1” value in the data set on pgsA-745 is 1.28.
Take `NCCC[C@H](NC(=O)[C@H](Cc1c[nH]c2ccccc12)NC(=O)[C@H](Cc1c[nH]c2ccccc12)NC(=O)[C@H](CCCN)NC(=O)[C@H](CCCN)NC(=O)[C@@H](NC(=O)[C@H](Cc1c[nH]c2ccccc12)NC(=O)[C@H](CCCN)NC(=O)[C@@H](N)CCCN)C(c1ccccc1)c1ccccc1)C(N)=O` [LTX-318, OOWDipOOWWO-NH2] (H-[Orn][Orn]W[Dip][Orn][Orn]WW[Orn]-NH2): the half-maximal inhibitory concentration (IC50) is over 347 µM in the data set with HUVEC; over 695 µM in data set [1]; 106 ± 17 µM in the data set on U-266; 82 ± 11 µM in the data set on Ramos; 216 ± 36 µM in the data set with MT-1; 73 to 106 µM with lymphoma cells. The half-inhibitory concentration (IC50) in the data set with KMM-1 worked out at 111 ± 1 µM; in the data set with KMS-5, 73 ± 5 µM; in the data set with Kelly, 78 ± 7 µM; in the data set with HT-29 it was 248 ± 5 µM; in the data set with Sudhl-4, 110 ± 5 µM; in the data set on CHO-K1, 145 ± 6 µM. The IC50 in the data set with pgsA-745 is 176 ± 3 µM. For the same compound, the “IC50 against endothelial cells (no IC50 value at the highest concentration tested)” value in the data set on HUVEC was over 500 µg/mL. This compound also returned a half-inhibitory concentration (IC50) at 30 min in data set [2] of over 347 µM. For the same compound, in the data set with MRC-5, the “IC50 against fibroblast cells (no IC50 value at the highest concentration tested)” value was over 500 µg/mL. Also, the “cytotoxic activity in the presence of soluble CS or HS” value in the data set on CHO-K1 cells is reported as “not inhibited”.

As usually defined, the IC50 is the concentration needed to halve the response being measured.
